Reference: patent publication US9133434B1, “Grass endophyte” (Cropmark Seeds Ltd., priority 2012, dated 2015)

Columns and labels:
[1] = test system: Neotyphodium uncinatum, var.UNC1; assay: Effect of benomyl on growth, comparison of varieties; type: cell-based; settings: comparison of the two varieties
Protocol: (§1) Plates of PDA containing different concentrations of the fungicide benomyl were prepared as outlined by Christensen et al. (1991). Benlate(Methyl[1-[(butylamino)carbonyl]-1H-benzimidazol-2-yl]carbamate) (50% WP) was added to PDA prior to sterilization. Concentrations of benomyl were adjusted to 1, 5, 10, 50 and 100 ppm. Five duplicate plates were inoculated with a colony plug.
The two varieties were similar in tested characteristics of colony sporulation, colony sectoring, colony color (upper surface), colony shape, colony immersion or margin in agar, colony texture, aerial mycelium density and type, and effect of benomyl on growth. The two varieties differed in […] and rate of growth.

[2] = test system: Neotyphodium uncinatum, var. U2; assay: Colony: resistance to benomyl on growth (PDA plates with benomyl); type: cell-based; settings: benomyl 1, 5, 10, 50 and 100 ppm in PDA, recorded after 4 weeks; scale absent or very weak / weak / medium / strong / very strong
Protocol: Neotyphodium uncinatum, var. U2 was isolated from line FP102 of Festuca pratensis (Meadow fescue). Line FP102 originally came from Norway in 1999. Characteristics for Neotyphodium uncinatum, var. U2 were determined and compared with other varieties. For these tests, the endophytic fungus isolated was cultured on 1.5% (w/v) potato dextrose agar at 20° C. in the dark (Christensen M J, Latch G C M, Tapper S A 1991: Variation within isolates of Acremonium endophytes from perennial ryegrasses. Mycol. Res. 95: 918-923). Length of cultivation was generally standardized at 4 weeks, but may be varied according to the isolate. Five plates of each strain were grown.
as §1

`CCCCNC(=O)n1c(NC(=O)OC)nc2ccccc21` [benomyl, Methyl[1-[(butylamino)carbonyl]-1H-benzimidazol-2-yl]carbamate] was tested, and the “effect of benomyl on growth, var.UNC1 compared with var. U2” value [1] was “similar” and the “Colony: resistance to benomyl on growth” value [2] was “strong”.
